Calls of active or inactive are those of the source. No cut-off for these calls is given here.
Target: T1, Chromaffin granule amine transporter (Homo sapiens, UniProt P54219)
T1 sequence (P54219 whole entry): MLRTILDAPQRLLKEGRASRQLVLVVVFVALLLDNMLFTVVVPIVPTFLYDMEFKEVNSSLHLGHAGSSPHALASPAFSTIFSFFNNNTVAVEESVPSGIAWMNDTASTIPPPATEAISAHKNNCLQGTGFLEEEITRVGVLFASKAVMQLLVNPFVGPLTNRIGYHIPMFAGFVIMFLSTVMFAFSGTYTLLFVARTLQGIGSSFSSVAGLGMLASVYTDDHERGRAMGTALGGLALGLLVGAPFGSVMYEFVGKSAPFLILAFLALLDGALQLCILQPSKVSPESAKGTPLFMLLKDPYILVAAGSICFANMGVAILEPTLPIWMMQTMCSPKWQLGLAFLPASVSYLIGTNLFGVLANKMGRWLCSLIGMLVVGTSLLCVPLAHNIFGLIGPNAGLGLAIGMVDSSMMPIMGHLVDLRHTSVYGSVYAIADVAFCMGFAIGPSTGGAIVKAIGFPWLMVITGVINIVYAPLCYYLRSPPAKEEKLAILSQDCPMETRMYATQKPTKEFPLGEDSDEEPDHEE
Test: Substrate uptake and inhibition of the chromaffin granule amine transporter (VAT1, VMAT1, SLC18A1) as assessed by uptake of a fluorescent substrate (FFN206) in HEK-293 JumpIN-SLC18A1 cells (PubChem AID: 1794818)
Format: functional, cell-based, HEK293

Compound: CNc1ccc2c(CCN)cc(=O)oc2c1
- EC50: 2000 nM

Compound: COC(=O)[C@H]1[C@H]2C[C@@H]3c4[nH]c5cc(OC)ccc5c4CCN3C[C@H]2C[C@@H](OC(=O)c2cc(OC)c(OC)c(OC)c2)[C@@H]1OC [RESERPINE]
- IC50: 50 nM

Compound: COc1cc2c(cc1OC)C1CC(=O)C(CC(C)C)CN1CC2 (stereo not drawn) [TETRABENAZINE]
- IC50: > 10000 nM (inactive)

Source: ChEMBL document CHEMBL5209563, “FFN206 based assay for SLC18A1 using HEK-293 SLC18A1 OE cells” (2022)
